The values below come from PubChem BioAssay (NCI).

SMILES strings stand for the structures.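 Briefly, cells in 96-well plates were exposed to five compound concentrations for 48 h, and endpoints were estimated by linear interpolation. GI50 is the concentration that inhibits growth by half. TGI denotes the concentration required for complete inhibition of growth.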

The test system of this test is MDA-MB-468 breast. The experiment in a line: growth of human tumour cells (NCI), 48 h.
With `O=C1C(c2ccccc2)=C(N2CCc3ccccc32)OC1(Cl)Cl`, the GI50 was 1.63 µM and the TGI is 3.25 µM.

Turning to `COc1ccc(-c2csc(NC(=O)CSc3nc(C)c(-c4ccccc4)n3Nc3ccccc3)n2)cc1`, the GI50 is > 100 µM and the TGI is > 100 µM.

For the molecule `Nc1ccccc1SC1CC(=O)N(c2ccc(Cl)c(Cl)c2)C1=O` (configuration not stated), the GI50 is 18.4 µM and the TGI is > 100 µM.

Turning to `COc1c(O)c(O)cc2c1-c1ccc(OC)c(=O)cc1C(NC(C)=O)CC2` (configuration not stated), the GI50 was 16.9 µM and the TGI is > 100 µM.

On to `O=C(NCc1ccc(S(=O)(=O)c2cc(F)cc(F)c2)cc1)c1ccc2nccn2c1`, for which the GI50 is 9.27 µM and the TGI is > 100 µM.

As to `Cn1cc(-c2ccc(-c3cncc(Cl)c3N3CCC4(CCNC4=O)CC3)cc2)cn1`, the GI50 was 19.9 µM and the TGI was > 100 µM.

Take `CC/C=C/C/C=C/C/C=C/C/C=C/C/C=C/C/C=C/CCC(=O)Nc1ccn([C@@H]2O[C@H](CO)[C@@H](O)C2(F)F)c(=O)n1`: the GI50 was 0.384 µM and the TGI is > 64.6 µM.

For the molecule `COC(C(=O)[C@@H](O)[C@@H](C)O)[C@@H]1Cc2cc3cc(O[C@H]4C[C@@H](O[C@H]5C[C@@H](O)[C@H](O)C(C)O5)[C@H](O)C(C)O4)c(C)c(O)c3c(O)c2C(=O)[C@H]1O[C@H]1C[C@@H](O[C@H]2C[C@@H](O[C@H]3C[C@@H](O)[C@H](OC)C(C)O3)[C@@H](O)C(C)O2)[C@H](O)C(C)O1` (some centres not stated), the GI50 is 0.0329 µM and the TGI worked out at 0.259 µM.

For `CCCCCCCCCCN1CCC(N2CCCCC2)CC1`, the GI50 was 1.44 µM and the TGI worked out at 3.01 µM.

Consider `COc1ccc2c(c1)C(C)Cc1c(ncnc1-n1cnc3cc(C)ccc31)N2C` (configuration not stated), for which the GI50 is 0.0341 µM and the TGI was 18.9 µM.

As for `C[C@]12CC[C@@H]3c4ccc(O)c([N+](=O)[O-])c4CC[C@H]3[C@@H]1CC[C@@H]2NS(=O)(=O)c1cccc(Br)c1`, the GI50 was 2.74 µM and the TGI was 7.69 µM.
